US20080194574A1, “Pyrazine Derivatives As Effective Compounds Against Infectious Diseases” (AXXIMA PHARMACEUTICALS AG, priority 2003, published 2008)

Biological target: T1, viral kinase pUL-97 (Human cytomegalovirus, UniProt P16788)
T1 construct: The pUL-97 gene was cloned into a baculovirus vector; GST (glutathione S-transferase) (N); made in house; host or cells: Sf9 insect cells, baculovirus
Experiment: UL97 kinase assay on Immobilon plate
Format: biochemical
Details: inhibition of UL 97 kinase activity; class by IC50 / % inhibition at 10 μM or 100 μM; read-out: Activity Class [A, B, C]
Procedure: UL97 Kinase-Assay on Immobilon Plate
The effect of pyrazine derivatives of this invention was tested on the activity of the viral kinase pUL-97. This kinase is derived from human cytomegalovirus (HCMV) (M. Marschall et al., Journal of General Virology, 2001, 82, 1439-1450). The pUL-97 gene was cloned into a baculovirus vector in order to produce GST (glutathione S-transferase) fusion protein. Insect cells (Sf9) were infected and GST-UL-97 purified via glutathione affinity columns according to standard procedures.
The pUL-97 kinase reaction was performed as described (M. Marschall et al., Journal of General Virology, 2001, 82, 1439-1450). Briefly, 10 μl Assay buffer (3 μM ATP, 60 μg/ml myelin basic protein (MBP) as substrate), 1.0 μCi γ-[^33P]ATP and 10 μl Basic buffer (20 mM Tris-HCl pH7.5, 0.5 mM MnCl2, 1 mM DTT (Dithiothreitol)) were given to the test tube before adding various concentrations of pyrazine derivatives. The reaction was started by adding 0.2 μl pUL-97 kinase, purified from infected Sf9-insect cells as described above. The total volume was adjusted with Basic buffer to a final volume of 30 μl. The reaction mix was incubated for 1 hr at 30° C. For negative control, 10 μl 0.1M EDTA (Ethylene Diamine tetraacetate) was added to reaction mix before addition of pUL-97 protein kinase. The reaction was stopped by addition of 10 μl 0.1 M EDTA.
Measuring Incorporation of Radioactivity:
The Immobilon plate (Millipore) was rinsed with 50 μl methanol/well. Following addition of 100 μl 0.1 M EDTA, 20 μl of each kinase reaction mix was added to one well of the Immobilon plate. Each well was washed 4× with 250 μl 0.75% phosphoric acid and 1× with 50 μl methanol. After addition of 50 μl scintillation cocktail (Roth, Germany) per well incorporation of radioactivity was measured using a Betareader (Wallac) and enzymatic activity calculated.

T1 sequence (P16788 whole entry): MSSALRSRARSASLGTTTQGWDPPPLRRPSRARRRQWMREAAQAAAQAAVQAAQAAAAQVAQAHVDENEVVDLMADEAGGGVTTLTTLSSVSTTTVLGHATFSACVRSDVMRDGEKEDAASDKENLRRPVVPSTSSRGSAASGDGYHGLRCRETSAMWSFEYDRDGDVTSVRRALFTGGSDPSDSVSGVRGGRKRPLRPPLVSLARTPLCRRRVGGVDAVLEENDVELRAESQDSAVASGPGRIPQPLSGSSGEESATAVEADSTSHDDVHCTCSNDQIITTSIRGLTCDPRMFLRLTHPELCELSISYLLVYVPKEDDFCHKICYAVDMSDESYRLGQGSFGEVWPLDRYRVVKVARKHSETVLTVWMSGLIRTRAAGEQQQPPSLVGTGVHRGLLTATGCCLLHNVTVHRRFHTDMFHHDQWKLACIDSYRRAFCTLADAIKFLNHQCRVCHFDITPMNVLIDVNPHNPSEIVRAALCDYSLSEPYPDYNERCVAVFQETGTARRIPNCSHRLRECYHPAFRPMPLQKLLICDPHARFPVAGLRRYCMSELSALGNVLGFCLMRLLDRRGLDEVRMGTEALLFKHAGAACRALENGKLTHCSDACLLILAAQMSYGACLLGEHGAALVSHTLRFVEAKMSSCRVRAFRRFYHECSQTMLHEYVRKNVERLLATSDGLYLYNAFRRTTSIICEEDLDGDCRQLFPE

Row | SMILES | IC50 [µM]
1 | Fc1ccc(N2CCN(c3cncc(-c4ccc(-c5ccccc5)c(F)c4)n3)CC2)cc1 [compound 268, 6′-(2-Fluoro-biphenyl-4-yl)-4-(4-fluoro-phenyl)-3,4,5,6-tetrahydro-2H-[1,2′]bipyrazinyl] | 10 to 100
2 | CSc1ccc(-c2cncc(N3CCN(c4ccc(F)cc4F)CC3)n2)cc1 [compound 274, 4-(2,4-Difluoro-phenyl)-6′-(4-methylsulfanyl-phenyl)-3,4,5,6-tetrahydro-2H-[1,2′]bipyrazinyl] | 1 to 10
3 | COc1cccc(-c2cncc(N3CCN(c4ccc(Cl)cc4)CC3)n2)c1 [compound 302, 4-(4-Chloro-phenyl)-6′-(3-methoxy-phenyl)-3,4,5,6-tetrahydro-2H-[1,2′]bipyrazinyl] | 1 to 10
4 | COc1cccc(N2CCN(c3cncc(-c4csc5ccccc45)n3)CC2)c1 [compound 286, 6′-Benzo[b]thiophen-3-yl-4-(3-methoxy-phenyl)-3,4,5,6-tetrahydro-2H-[1,2′]bipyrazinyl] | 1 to 10
5 | c1ccc(N2CCN(c3cncc(-c4ccsc4)n3)CC2)nc1 [compound 350, 4-Pyridin-2-yl-6′-thiophen-3-yl-3,4,5,6-tetrahydro-2H-[1,2′]bipyrazinyl] | 1 to 10
6 | Cc1ccc(N2CCN(c3cncc(-c4ccc5ccccc5c4)n3)CC2)c(C)c1 [compound 320, 4-(2,4-Dimethyl-phenyl)-6′-naphthalen-2-yl-3,4,5,6-tetrahydro-2H-[1,2′]bipyrazinyl] | 10 to 100
7 | Fc1ccc(-c2cncc(N3CCN(c4ccc(C(F)(F)F)cc4)CC3)n2)cc1 [compound 309, 6′-(4-Fluoro-phenyl)-4-(4-trifluoromethyl-phenyl)-3,4,5,6-tetrahydro-2H-[1,2′]bipyrazinyl] | 10 to 100
8 | COc1cccc(N2CCN(c3cncc(-c4ccc(CO)cc4)n3)CC2)c1 [compound 323, {4-[4-(3-Methoxy-phenyl)-3,4,5,6-tetrahydro-2H-[1,2′]bipyrazinyl-6′-yl]-phenyl}-methanol] | 1 to 10
9 | Fc1ccc(N2CCN(c3cncc(-c4ccc(C(F)(F)F)cc4)n3)CC2)c(F)c1 [compound 210, 4-(2,4-Difluoro-phenyl)-6′-(4-trifluoromethyl-phenyl)-3,4,5,6-tetrahydro-2H-[1,2′]bipyrazinyl] | 1 to 10
10 | CC(=O)c1ccc(-c2cncc(N3CCN(c4ccc(F)cc4F)CC3)n2)cc1 [compound 275, 1-{4-[4-(2,4-Difluoro-phenyl)-3,4,5,6-tetrahydro-2H-[1,2′]bipyrazinyl-6′-yl]-phenyl}-ethanone] | 1 to 10
11 | CN(C)c1ccc(-c2cncc(N3CCN(c4cccc(C(F)(F)F)c4)CC3)n2)cc1 [compound 216, Dimethyl-{4-[4-(3-trifluoromethyl-phenyl)-3,4,5,6-tetrahydro-2H-[1,2′]bipyrazinyl-6′-yl]-phenyl}-amine] | 10 to 100
12 | CSc1ccc(-c2cncc(N3CCC(c4ccccc4)CC3)n2)cc1 [compound 361, 2-(4-Methylsulfanyl-phenyl)-6-(4-phenyl-piperidin-1-yl)-pyrazine] | 1 to 10

Same assay, conditions: inhibition of UL 97 kinase activity; class by IC50 / % inhibition at 10 or 100 μM; read-out: Activity Class [A, B, C]

Row | SMILES | IC50 [µM]
13 | Fc1ccc(N2CCN(c3cncc(-c4ccc(C(F)(F)F)cc4)n3)CC2)cc1 [compound 180, 4-(4-Fluoro-phenyl)-6′-(4-trifluoromethyl-phenyl)-3,4,5,6-tetrahydro-2H-[1,2′]bipyrazinyl] | 1 to 10
14 | Oc1ccc(-c2cncc(NCc3cccs3)n2)cc1 [compound 30, 4-{6-[(Thiophen-2-ylmethyl)-amino]-pyrazin-2-yl}-phenol] | < 1
15 | CCOc1ccc(-c2cncc(N3CCN(c4ccc(OC)c(OC)c4)CC3)n2)cc1 [compound 45, 4-(3,4-Dimethoxy-phenyl)-6′-(4-ethoxy-phenyl)-3,4,5,6-tetrahydro-2H-[1,2′]bipyrazinyl] | 1 to 10
16 | CSc1ccc(-c2cncc(N3CCN(c4ccccc4F)CC3)n2)cc1 [compound 116, 4-(2-Fluoro-phenyl)-6′-(4-methylsulfanyl-phenyl)-3,4,5,6-tetrahydro-2H-[1,2′]bipyrazinyl] | 1 to 10
17 | N#Cc1cccc(-c2cncc(N3CCN(c4ccncc4)CC3)n2)c1 [compound 167, 3-(4-Pyridin-4-yl-3,4,5,6-tetrahydro-2H-[1,2′]bipyrazinyl-6′-yl)-benzonitrile] | 1 to 10
18 | Fc1ccccc1N1CCN(c2cncc(-c3ccc4ccccc4c3)n2)CC1 [compound 123, 4-(2-Fluoro-phenyl)-6′-naphthalen-2-yl-3,4,5,6-tetrahydro-2H-[1,2′]bipyrazinyl] | 1 to 10
19 | COc1ccc(N2CCN(c3cncc(-c4cccc(C#N)c4)n3)CC2)cc1OC [compound 173, 3-[4-(3,4-Dimethoxy-phenyl)-3,4,5,6-tetrahydro-2H-[1,2′]bipyrazinyl-6′-yl]-benzonitrile] | 10 to 100
20 | Cc1cccc(-c2cncc(N3CCN(c4cccc(C(F)(F)F)c4)CC3)n2)c1C [compound 156, 6′-(2,3-Dimethyl-phenyl)-4-(3-trifluoromethyl-phenyl)-3,4,5,6-tetrahydro-2H-[1,2′]bipyrazinyl] | 10 to 100
21 | COc1cccc(-c2cncc(N3CCN(c4cccc(Cl)c4)CC3)n2)c1OC [compound 183, 4-(3-Chloro-phenyl)-6′-(2,3-dimethoxy-phenyl)-3,4,5,6-tetrahydro-2H-[1,2′]bipyrazinyl] | 10 to 100
22 | CCOc1ccc(-c2cncc(N3CCN(c4cccc(Cl)c4)CC3)n2)cc1 [compound 129, 4-(3-Chloro-phenyl)-6′-(4-ethoxy-phenyl)-3,4,5,6-tetrahydro-2H-[1,2′]bipyrazinyl] | 1 to 10
23 | COc1ccc(-c2cncc(N3CCN(c4ccccc4OC)CC3)n2)cc1OC [compound 107, 6′-(3,4-Dimethoxy-phenyl)-4-(2-methoxy-phenyl)-3,4,5,6-tetrahydro-2H-[1,2′]bipyrazinyl] | 1 to 10
24 | CCOc1ccccc1-c1cncc(N2CCN(c3ccc(C)cc3)CC2)n1 [compound 175, 6′-(2-Ethoxy-phenyl)-4-p-tolyl-3,4,5,6-tetrahydro-2H-[1,2′]bipyrazinyl] | 10 to 100
25 | NC(=O)c1ccccc1-c1cncc(N2CCN(c3ccncc3)CC2)n1 [Comp. 70, 2-(4-Pyridin-4-yl-3,4,5,6-tetrahydro-2H-[1,2′]bipyrazinyl-6′-yl)-benzamide] | 10 to 100
26 | Fc1ccc(-c2cncc(N3CCN(c4ccccc4F)CC3)n2)cc1 [compound 114, 4-(2-Fluoro-phenyl)-6′-(4-fluoro-phenyl)-3,4,5,6-tetrahydro-2H-[1,2′]bipyrazinyl] | 1 to 10
27 | c1cc(N2CCN(c3cncc(-c4ccsc4)n3)CC2)ccn1 [compound 79, 4-Pyridin-4-yl-6′-thiophen-3-yl-3,4,5,6-tetrahydro-2H-[1,2′]bipyrazinyl] | 1 to 10
28 | Clc1ccc(-c2cncc(NCc3ccccc3)n2)cc1 [compound 27, Benzyl-[6-(4-chloro-phenyl)-pyrazin-2-yl]-amine] | 10 to 100
29 | Fc1cccc(-c2cncc(N3CCN(c4ccccc4)CC3)n2)c1 [compound 194, 6′-(3-Fluoro-phenyl)-4-phenyl-3,4,5,6-tetrahydro-2H-[1,2′]bipyrazinyl] | 10 to 100
30 | CC(=O)c1ccc(-c2cncc(N3CCN(c4cccc(Cl)c4)CC3)n2)cc1 [compound 103, 1-{4-[4-(3-Chloro-phenyl)-3,4,5,6-tetrahydro-2H-[1,2′]bipyrazinyl-6′-yl]-phenyl}-ethanone] | 1 to 10
31 | COc1ccc(-c2cncc(N3CCN(c4ccncc4)CC3)n2)cc1OC [compound 77, 6′-(3,4-Dimethoxy-phenyl)-4-pyridin-4-yl-3,4,5,6-tetrahydro-2H-[1,2′]bipyrazinyl] | < 1
